Data from ChEMBL document CHEMBL1155037, “BACE1 inhibitory effects of lavandulyl flavanones from Sophora flavescens” (Bioorg Med Chem, 2008).
Activity calls are given as the source filed them. The calls are words filed in the database; no cut-off is given here.

Key:
Beta-secretase 1 [1] = target: T1, Beta-secretase 1 (Homo sapiens, UniProt P56817); experiment: Inhibition of human BACE1 expressed in HEK293 cells assessed as reduction in soluble APPbeta level after 4 hrs by Western blot analysis; type: cell-based; set-up: concentration or dose not given beside the values
Beta-secretase 1 [2] = target: T1, Beta-secretase 1; experiment: Inhibition of human BACE1 expressed in HEK293 cells assessed as reduction in soluble APPalpha level after 4 hrs by Western blot analysis; type: cell-based
Beta-secretase 1 [3] = target: T1, Beta-secretase 1; experiment: Inhibition of human BACE1

T1 sequence (P56817 whole entry): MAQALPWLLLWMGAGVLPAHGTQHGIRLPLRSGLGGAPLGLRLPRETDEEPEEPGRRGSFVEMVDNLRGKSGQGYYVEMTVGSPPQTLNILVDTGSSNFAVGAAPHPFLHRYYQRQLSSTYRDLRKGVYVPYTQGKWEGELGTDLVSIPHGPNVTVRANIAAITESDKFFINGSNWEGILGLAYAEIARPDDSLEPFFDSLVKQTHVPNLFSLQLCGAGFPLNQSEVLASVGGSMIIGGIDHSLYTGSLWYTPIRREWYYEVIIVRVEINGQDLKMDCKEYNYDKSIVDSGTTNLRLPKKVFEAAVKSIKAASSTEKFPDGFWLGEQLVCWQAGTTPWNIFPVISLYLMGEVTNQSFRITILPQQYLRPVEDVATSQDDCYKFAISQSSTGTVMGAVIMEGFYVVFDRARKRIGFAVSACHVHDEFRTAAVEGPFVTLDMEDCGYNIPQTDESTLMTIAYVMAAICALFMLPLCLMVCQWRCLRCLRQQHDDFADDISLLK

SMILES	Activity (Beta-secretase 1 [1]) [%]	Activity (Beta-secretase 1 [2])	IC50 (Beta-secretase 1 [3]) [µM]	Ki (Beta-secretase 1 [3]) [µM]
C=C(C)[C@H](CC=C(C)C)Cc1c(O)cc(OC)c2c1O[C@H](c1ccc(O)cc1OC)CC2=O	51.1	Active	6.7	10.6
COc1cc(O)c(CC=C(C)C)c2c1C(=O)CC(c1ccc(O)cc1)O2 (stereo not drawn) [ISOXANTHOHUMOL]	–	–	27.7	–
C=C(C)[C@H](CCC(C)(C)O)Cc1c(O)cc(OC)c2c1O[C@H](c1ccc(O)cc1O)CC2=O [KURARINOL]	–	–	39.2	–
C=C(C)C(CC=C(C)C)Cc1c(O)cc(OC)c2c1O[C@H](c1ccc(O)cc1O)CC2=O (stereo partly drawn) [KURARINONE]	51.9	Active	3.3	7.2
C=C(C)[C@H](CC=C(C)C)Cc1c(O)cc(O)c2c1O[C@H](c1ccccc1O)CC2=O [KUSHENOL A]	61.8	Active	2.6	3
C=C(C)[C@H](CCC(C)(C)O)Cc1c(O)cc(O)c2c1O[C@H](c1ccccc1O)CC2=O [KUSHENOL T]	–	–	36.8	–
C=C(C)[C@H](CC=C(C)C)Cc1c(O)cc(O)c2c1O[C@H](c1ccc(O)cc1OC)CC2=O [LEACHIANONE A]	40.7	Dose-dependent effect	8.4	3.9
C=C(C)[C@H](CC=C(C)C)Cc1c(O)cc(O)c2c1O[C@H](c1ccc(O)cc1O)CC2=O [SOPHORAFLAVANONE G]	56	Active	5.2	1.1
